Assay results as given in PMC6199744, “Development of Chemical Proteomics for the Folateome and Analysis of the Kinetoplastid Folateome” (ACS Infectious Diseases, 2018).
Read-outs that look alike come from different tables or passages of the source.

What was measured:
Format in all cases: binding
[1] = target: T1, HeLa cell extract proteins (Homo sapiens, UniProt P08579)
T1 construct: endogenous in cells; host or cells: HeLa cell extract

[2] = target: T2, HeLa cell extract proteins (Homo sapiens, UniProt P62258)
T2 construct: endogenous in cells; host or cells: HeLa cell extract
T2 sequence (P62258 1-255): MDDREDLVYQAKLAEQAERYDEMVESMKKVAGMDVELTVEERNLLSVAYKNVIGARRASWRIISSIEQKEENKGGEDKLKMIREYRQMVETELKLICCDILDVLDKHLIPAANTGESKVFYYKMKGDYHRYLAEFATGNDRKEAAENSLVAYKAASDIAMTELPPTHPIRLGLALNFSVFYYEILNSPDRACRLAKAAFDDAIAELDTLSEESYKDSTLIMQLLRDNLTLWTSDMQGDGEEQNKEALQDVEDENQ

[3] = target: T3, HeLa cell extract proteins (Homo sapiens, UniProt Q00610)
T3 construct: endogenous in cells; host or cells: HeLa cell extract

[4] = target: T4, HeLa cell extract proteins (Homo sapiens, UniProt Q13200)
T4 construct: endogenous in cells; host or cells: HeLa cell extract

[5] = target: T5, HeLa cell extract proteins (Homo sapiens, UniProt Q5T8D3)
T5 construct: endogenous in cells; host or cells: HeLa cell extract
T5 sequence (Q5T8D3 1-534): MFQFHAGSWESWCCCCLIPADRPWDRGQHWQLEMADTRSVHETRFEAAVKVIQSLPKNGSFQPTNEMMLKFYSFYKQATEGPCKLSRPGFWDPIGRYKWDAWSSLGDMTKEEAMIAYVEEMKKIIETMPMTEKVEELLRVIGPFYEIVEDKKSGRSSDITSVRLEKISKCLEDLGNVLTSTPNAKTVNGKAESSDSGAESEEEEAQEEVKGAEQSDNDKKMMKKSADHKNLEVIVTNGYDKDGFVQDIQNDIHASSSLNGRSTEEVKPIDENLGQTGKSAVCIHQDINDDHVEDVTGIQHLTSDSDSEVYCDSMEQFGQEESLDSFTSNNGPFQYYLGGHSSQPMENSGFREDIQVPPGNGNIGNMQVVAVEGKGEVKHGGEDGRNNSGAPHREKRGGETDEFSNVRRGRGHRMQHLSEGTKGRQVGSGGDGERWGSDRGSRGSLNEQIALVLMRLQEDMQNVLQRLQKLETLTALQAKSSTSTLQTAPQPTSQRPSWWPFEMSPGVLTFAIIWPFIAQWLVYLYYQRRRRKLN

[6] = target: T6, HeLa cell extract proteins (Homo sapiens, UniProt Q8NEW0)
T6 construct: endogenous in cells; host or cells: HeLa cell extract
T6 sequence (Q8NEW0 1-376): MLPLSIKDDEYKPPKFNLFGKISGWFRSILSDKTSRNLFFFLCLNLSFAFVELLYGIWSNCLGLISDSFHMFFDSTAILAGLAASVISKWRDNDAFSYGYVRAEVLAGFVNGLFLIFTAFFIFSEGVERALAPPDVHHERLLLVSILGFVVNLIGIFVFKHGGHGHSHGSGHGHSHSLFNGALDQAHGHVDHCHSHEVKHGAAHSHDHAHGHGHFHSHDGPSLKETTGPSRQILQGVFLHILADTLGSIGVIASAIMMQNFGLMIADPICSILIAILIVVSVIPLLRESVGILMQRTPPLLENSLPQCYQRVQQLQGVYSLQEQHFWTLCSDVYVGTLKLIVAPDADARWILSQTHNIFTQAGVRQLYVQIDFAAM

[7] = target: T7, HeLa cell extract proteins (Homo sapiens, UniProt Q9UBN7)
T7 construct: endogenous in cells; host or cells: HeLa cell extract
T7 sequence (Q9UBN7 1-1215): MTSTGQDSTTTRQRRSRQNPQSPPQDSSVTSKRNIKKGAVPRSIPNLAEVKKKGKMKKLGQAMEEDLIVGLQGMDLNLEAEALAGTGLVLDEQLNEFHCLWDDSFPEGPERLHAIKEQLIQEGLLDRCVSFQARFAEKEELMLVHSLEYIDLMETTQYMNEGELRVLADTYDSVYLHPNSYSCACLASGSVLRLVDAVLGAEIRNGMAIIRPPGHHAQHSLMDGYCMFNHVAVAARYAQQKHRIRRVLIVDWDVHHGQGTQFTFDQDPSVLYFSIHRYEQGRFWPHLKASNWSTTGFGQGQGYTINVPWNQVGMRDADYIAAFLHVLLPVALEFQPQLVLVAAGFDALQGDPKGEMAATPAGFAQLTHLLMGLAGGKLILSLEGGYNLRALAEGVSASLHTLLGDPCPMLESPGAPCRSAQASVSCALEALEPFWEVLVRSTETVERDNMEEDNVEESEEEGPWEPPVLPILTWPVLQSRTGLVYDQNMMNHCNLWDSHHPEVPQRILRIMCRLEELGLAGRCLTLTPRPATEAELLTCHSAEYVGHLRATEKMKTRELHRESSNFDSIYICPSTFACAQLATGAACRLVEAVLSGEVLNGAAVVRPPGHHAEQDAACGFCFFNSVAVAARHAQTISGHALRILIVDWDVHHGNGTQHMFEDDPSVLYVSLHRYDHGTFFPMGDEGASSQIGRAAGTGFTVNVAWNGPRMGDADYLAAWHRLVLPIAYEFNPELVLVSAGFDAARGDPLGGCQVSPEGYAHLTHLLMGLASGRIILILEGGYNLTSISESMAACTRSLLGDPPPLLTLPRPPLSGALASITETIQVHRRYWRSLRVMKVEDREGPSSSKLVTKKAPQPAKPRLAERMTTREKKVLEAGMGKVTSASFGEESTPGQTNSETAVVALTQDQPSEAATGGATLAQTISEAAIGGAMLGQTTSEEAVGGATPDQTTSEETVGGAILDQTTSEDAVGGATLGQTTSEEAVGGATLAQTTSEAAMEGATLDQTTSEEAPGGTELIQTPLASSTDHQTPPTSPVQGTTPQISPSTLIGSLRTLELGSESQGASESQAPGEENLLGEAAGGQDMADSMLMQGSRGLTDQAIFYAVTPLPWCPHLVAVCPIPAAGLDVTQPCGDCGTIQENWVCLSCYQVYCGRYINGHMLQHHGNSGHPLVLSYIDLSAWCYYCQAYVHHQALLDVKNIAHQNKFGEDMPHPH

[8] = HeLa, protein CLTC (ISOFORM 1 OF CLATHRIN HEAVY CHAIN 1)
[9] = HeLa, protein SLC30A7 (SOLUTE CARRIER FAMILY 30 MEMBER 7)

T3 sequence (Q00610 whole entry): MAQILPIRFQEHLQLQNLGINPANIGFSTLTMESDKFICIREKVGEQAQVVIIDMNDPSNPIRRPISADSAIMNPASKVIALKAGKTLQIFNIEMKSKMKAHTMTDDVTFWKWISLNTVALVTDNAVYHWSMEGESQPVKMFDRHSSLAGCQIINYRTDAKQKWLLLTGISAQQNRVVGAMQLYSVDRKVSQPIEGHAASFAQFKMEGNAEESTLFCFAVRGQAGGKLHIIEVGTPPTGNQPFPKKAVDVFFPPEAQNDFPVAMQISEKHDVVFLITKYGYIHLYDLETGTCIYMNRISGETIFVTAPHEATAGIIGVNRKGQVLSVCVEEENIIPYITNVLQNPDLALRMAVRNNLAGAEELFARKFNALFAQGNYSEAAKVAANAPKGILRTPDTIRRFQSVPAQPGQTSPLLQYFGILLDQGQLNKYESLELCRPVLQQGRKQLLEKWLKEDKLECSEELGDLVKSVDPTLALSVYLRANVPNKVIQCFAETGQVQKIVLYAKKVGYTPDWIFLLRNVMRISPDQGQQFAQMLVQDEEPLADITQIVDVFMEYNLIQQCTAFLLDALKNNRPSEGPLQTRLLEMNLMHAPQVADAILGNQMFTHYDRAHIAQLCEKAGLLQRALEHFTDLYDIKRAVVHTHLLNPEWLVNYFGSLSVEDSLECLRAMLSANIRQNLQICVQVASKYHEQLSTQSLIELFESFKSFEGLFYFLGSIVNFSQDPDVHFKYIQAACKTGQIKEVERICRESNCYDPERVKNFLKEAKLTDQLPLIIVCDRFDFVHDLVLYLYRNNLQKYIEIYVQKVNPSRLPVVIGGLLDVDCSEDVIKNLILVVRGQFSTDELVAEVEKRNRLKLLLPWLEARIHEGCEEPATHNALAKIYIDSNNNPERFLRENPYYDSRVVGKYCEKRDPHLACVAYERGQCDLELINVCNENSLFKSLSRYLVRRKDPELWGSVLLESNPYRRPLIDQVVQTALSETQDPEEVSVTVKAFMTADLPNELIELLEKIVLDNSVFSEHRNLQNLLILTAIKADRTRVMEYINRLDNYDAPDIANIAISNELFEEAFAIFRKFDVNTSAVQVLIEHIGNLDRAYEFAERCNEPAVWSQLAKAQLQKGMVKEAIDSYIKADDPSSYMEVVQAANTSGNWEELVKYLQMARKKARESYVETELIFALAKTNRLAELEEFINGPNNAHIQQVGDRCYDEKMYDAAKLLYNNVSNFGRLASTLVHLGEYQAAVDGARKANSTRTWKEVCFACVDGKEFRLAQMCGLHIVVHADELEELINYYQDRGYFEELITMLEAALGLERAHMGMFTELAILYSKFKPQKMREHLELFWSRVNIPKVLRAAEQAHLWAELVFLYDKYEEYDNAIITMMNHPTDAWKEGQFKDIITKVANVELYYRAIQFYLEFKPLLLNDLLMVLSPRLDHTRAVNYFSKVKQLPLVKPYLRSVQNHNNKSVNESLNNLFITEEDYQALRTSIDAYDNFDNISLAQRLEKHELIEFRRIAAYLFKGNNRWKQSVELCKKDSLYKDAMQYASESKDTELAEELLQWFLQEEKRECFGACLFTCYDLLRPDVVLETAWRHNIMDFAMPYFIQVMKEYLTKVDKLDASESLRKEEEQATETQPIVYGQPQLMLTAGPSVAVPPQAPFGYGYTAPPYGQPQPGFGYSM
T1 sequence (P08579 whole entry): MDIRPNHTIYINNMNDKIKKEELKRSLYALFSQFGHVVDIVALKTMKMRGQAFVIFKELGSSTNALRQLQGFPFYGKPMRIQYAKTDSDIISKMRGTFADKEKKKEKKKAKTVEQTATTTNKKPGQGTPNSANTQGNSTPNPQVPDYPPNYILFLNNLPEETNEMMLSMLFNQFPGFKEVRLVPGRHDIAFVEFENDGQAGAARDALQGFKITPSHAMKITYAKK
T4 sequence (Q13200 whole entry): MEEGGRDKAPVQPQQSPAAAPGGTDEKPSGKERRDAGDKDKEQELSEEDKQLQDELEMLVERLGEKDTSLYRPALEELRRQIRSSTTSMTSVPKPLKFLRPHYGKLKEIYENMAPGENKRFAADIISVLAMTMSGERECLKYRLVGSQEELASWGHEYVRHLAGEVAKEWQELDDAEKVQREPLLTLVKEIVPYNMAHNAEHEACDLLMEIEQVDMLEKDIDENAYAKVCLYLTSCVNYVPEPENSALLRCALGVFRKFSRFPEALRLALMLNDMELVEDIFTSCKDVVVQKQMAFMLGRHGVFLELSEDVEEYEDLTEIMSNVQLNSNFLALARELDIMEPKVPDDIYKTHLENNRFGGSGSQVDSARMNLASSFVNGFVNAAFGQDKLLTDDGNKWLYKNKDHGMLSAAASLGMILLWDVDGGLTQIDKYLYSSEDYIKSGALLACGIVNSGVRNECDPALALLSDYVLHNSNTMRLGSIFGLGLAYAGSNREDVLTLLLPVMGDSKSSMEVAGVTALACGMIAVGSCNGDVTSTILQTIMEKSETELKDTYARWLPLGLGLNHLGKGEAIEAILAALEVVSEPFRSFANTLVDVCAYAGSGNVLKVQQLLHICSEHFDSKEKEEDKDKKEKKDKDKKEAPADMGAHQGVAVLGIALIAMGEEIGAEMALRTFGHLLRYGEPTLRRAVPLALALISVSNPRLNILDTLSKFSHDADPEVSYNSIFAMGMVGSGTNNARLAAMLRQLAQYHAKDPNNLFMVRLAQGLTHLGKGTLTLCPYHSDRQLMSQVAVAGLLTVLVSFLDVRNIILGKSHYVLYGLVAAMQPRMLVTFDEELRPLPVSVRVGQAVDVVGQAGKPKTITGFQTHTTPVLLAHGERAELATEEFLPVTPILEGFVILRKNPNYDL

Structure (SMILES) | fold changes relative to vehicle control ([1]; HeLa, protein SNRPB2) | fold changes relative to vehicle control ([2]; HeLa, protein YWHAE) | fold changes relative to vehicle control [3, 8] | fold changes relative to vehicle control ([4]; protein PSMD2, HeLa) | fold changes relative to vehicle control ([5]; HeLa, captured protein ACBD5) | fold changes relative to vehicle control [6, 9] | fold changes relative to vehicle control ([7]; HeLa, captured protein HDAC6) | fold changes relative to vehicle control [1] | fold changes relative to vehicle control [2] | fold changes relative to vehicle control [3] | fold changes relative to vehicle control [4] | fold changes relative to vehicle control [5] | fold changes relative to vehicle control [6] | fold changes relative to vehicle control [7] | fold changes relative to vehicle control ([2]; protein YWHAE, HeLa) | fold changes relative to vehicle control ([3]; protein CLTC, HeLa) | fold changes relative to vehicle control ([5]; HeLa, protein ACBD5) | fold changes relative to vehicle control ([6]; HeLa, protein SLC30A7) | fold changes relative to vehicle control ([7]; captured protein HDAC6, HeLa)
Nc1nc2c(c(=O)[nH]1)N(C=O)C(CNc1ccc(C(=O)N[C@@H](CCC(=O)O)C(=O)O)cc1)CN2 (stereo partly shown) [LEU, leucovorin] | 1 | 1.01 | 1.27 | 0.84 | 1.01 | 1.06 | 1.02 | – | – | – | – | – | – | – | – | – | – | – | –
Nc1nc2[nH]cc(CCc3ccc(C(=O)N[C@@H](CCC(=O)O)C(=O)O)cc3)c2c(=O)[nH]1 [PTX, pemetrexed] | – | – | – | – | – | – | – | 0.98 | 1.1 | 1.24 | 0.83 | 0.88 | 0.97 | 0.98 | – | – | – | – | –
CCCCCCOc1ccc(Cc2cnc(N)nc2N)cc1 [compound 1] | 1.22 | – | – | 0.98 | – | – | – | – | – | – | – | – | – | – | 1.37 | 0.83 | 1.13 | 1.06 | 0.95
CCCCCCOc1cccc(Cc2cnc(N)nc2N)c1 [compound 2] | 1.43 | – | – | 1.41 | – | – | – | – | – | – | – | – | – | – | 2 | 1.07 | 1.13 | 1 | 1.1
Nc1nc2cccc(-c3ccccc3)c2n1Cc1ccc(Cl)c(Cl)c1 [compound 3] | 0.76 | – | – | 1.01 | – | – | – | – | – | – | – | – | – | – | 1.03 | 1.2 | 0.92 | 1.07 | 1.14
NCCOCCOCC(=O)Nc1nc2ncc(CNc3ccc(C(=O)NC(CCC(=O)O)C(=O)O)cc3)nc2c(=O)[nH]1 (stereo not shown) [compound 6] | 0.93 | 1.17 | 1.11 | 1.01 | 1.09 | 0.94 | 1.06 | – | – | – | – | – | – | – | – | – | – | – | –
NCCCNc1ccc(C(=O)NC(CCC(=O)O)C(=O)O)cc1 (stereo not shown) [compound 7] | 0.77 | 1.03 | 1.18 | 0.99 | 1.03 | 1 | 1.02 | – | – | – | – | – | – | – | – | – | – | – | –
